Data reported in patent publication US12312370B2, “Immunoproteasome inhibitors” (Principia Biopharma Inc., priority 2017, dated 2025).
Where two headings read alike, the source gives them in different places.

What was measured:
[1] = target: constitutive proteasome β5c unit (Homo sapiens, UniProt P28074); test: Caliper-based proteasome enzymatic activity assay, β5c; format: biochemical; details: human recombinant constitutive proteasome 0.3 nM, FAM-labeled peptide substrate 1 μM, rt 3 h; read-out: β5c subunit IC50
[2] = target: immunoproteasome LMP7/B5i subunit (Homo sapiens, UniProt P28062); test: Caliper-based proteasome enzymatic activity assay, LMP7; format: biochemical
[3] = human recombinant immunoproteasome 0.3 nM, FAM-labeled peptide substrate 1 μM, rt 3 h, read-out: LMP7 subunit IC50

SMILES	IC50 [1]	IC50 [2, 3]	IC50 [2]
CC(C)C=C(C#N)C(=O)N1CCC[C@@H]1COC[C@H](NCC(F)(F)F)C(=O)N[C@@H](Cc1coc2ccccc12)B(O)O [Example 31, ((R)-2-(benzofuran-3-yl)-1-((S)-3-(((R)-1-(2-cyano-4-methylpent-2-enoyl)pyrrolidin-2-yl)methoxy)-2-((2,2,2-trifluoroethyl)amino)propanamido)ethyl)boronic acid]	39.4 nM	11.6 nM	
C=CC(=O)N1CCC[C@H](OC(=O)N[C@@H](Cc2ccc(F)cc2)B(O)O)C1 [Example 70, ((R)-1-(((((S)-1-acryloylpiperidin-3-yl)oxy)carbonyl)amino)-2-(4-fluorophenyl)ethyl)boronic acid]	> 5000 nM		106 nM
C=CC(=O)N1CCC[C@H](OC(=O)N[C@@H](Cc2coc3ccccc23)B(O)O)C1 [Example 65, ((R)-1-(((((S)-1-acryloylpiperidin-3-yl)oxy)carbonyl)amino)-2-(benzofuran-3-yl)ethyl)boronic acid]	418 nM	7.5 nM	
CC(C)(C=C(C#N)C(=O)N1CCC[C@@H](OC(=O)N[C@@H](Cc2ccccc2)B(O)O)C1)N1CCC(F)(F)C1 [Example 55, ((R)-1-(((((R)-1-(2-cyano-4-(3,3-difluoropyrrolidin-1-yl)-4-methylpent-2-enoyl)piperidin-3-yl)oxy)carbonyl)amino)-2-phenylethyl)boronic acid]	3880 nM	5.1 nM	
C=CC(=O)N1CCCC(C)(OC(=O)N[C@@H](Cc2ccccc2)B(O)O)C1 (single isomer, unassigned) [Example 85]	> 5000 nM	> 5000 nM	
CC(C)C=C(C#N)C(=O)NCCCC[C@H](NC(=O)[C@H](C)NC(=O)C(C)C)C(=O)N[C@@H](CC(C)C)B(O)O [Example 1, ((R)-1-((S)-6-(2-cyano-4-methylpent-2-enamido)-2-((S)-2-isobutyramidopropanamido)hexanamido)-3-methylbutyl)boronic acid]	12.1 nM	20.9 nM	
COC(=O)N1CCN(C(C)(C)C=C(C#N)C(=O)N2CCCC[C@H](OC(=O)N[C@@H](Cc3ccccc3)B(O)O)C2)CC1 [Example 108, ((R)-1-(((((S)-1-(2-cyano-4-(4-(methoxycarbonyl)piperazin-1-yl)-4-methylpent-2-enoyl)azepan-3-yl)oxy)carbonyl)amino)-2-phenylethyl)boronic acid]	3000 nM	1.2 nM	
CC(C)(C=C(C#N)C(=O)N1CCC[C@@](C)(OC(=O)N[C@@H](Cc2ccccc2)B(O)O)C1)N1CCC(F)(F)C1 (single isomer, unassigned) [Example 93]	> 5000 nM	646 nM	
C=CC(=O)N1C[C@@H](F)[C@@H](OC(=O)N[C@@H](Cc2ccccc2)B(O)O)C1 [Example 124, ((R)-1-(((((3S,4R)-1-acryloyl-4-fluoropyrrolidin-3-yl)oxy)carbonyl)amino)-2-phenylethyl)boronic acid]	> 5000 nM	37.3 nM	
C=CC(=O)N1C2CCC1(COC(=O)N[C@@H](Cc1coc3ccccc13)B(O)O)CC2 [Example 63, (R)-(1-((((7-acryloyl-7-azabicyclo[2.2.1]heptan-1-yl)methoxy)carbonyl)amino)-2-(benzofuran-3-yl)ethyl)boronic acid]	465 nM	2 nM	
CC(C)(C=C(C#N)C(=O)N1C2CCC1(COC(=O)N[C@@H](Cc1ccc(F)cc1)B(O)O)CC2)N1CCC(F)(F)C1 [Example 84, (R)-(1-((((7-(2-cyano-4-(3,3-difluoropyrrolidin-1-yl)-4-methylpent-2-enoyl)-7-azabicyclo[2.2.1]heptan-1-yl)methoxy)carbonyl)amino)-2-(4-fluorophenyl)ethyl)boronic acid]	279 nM	0.7 nM	
